Measurements taken from patent publication US6458951B2, “Pyrazolopyrimidinone cGMP PDE5 inhibitors for the treatment of sexual dysfunction” (Pfizer Inc, priority 1998, dated 2002).

Columns and labels:
cGMP PDE5 = cGMP PDE5 (UniProt O76074); assay: Phosphodiesterase (PDE) inhibitory activity, in vitro, cGMP PDE5; type: biochemical, human or rabbit; settings: in vitro activity as inhibitors of cGMP PDE5
Procedure: In vitro PDE inhibitory activities against cyclic guanosine 3′,5′-monophosphate (cGMP) and cyclic adenosine 3′,5′-monophosphate (cAMP) phosphodiesterases were determined by measurement of their IC50 values (the concentration of compound required for 50% inhibition of enzyme activity).
The required PDE enzymes were isolated from a variety of sources, including human corpus cavernosum, human and rabbit platelets, human cardiac ventricle, human skeletal muscle and bovine retina, essentially by the method of W. J. Thompson and M. M. Appleman (Biochem., 1971, 10, 311). In particular, the cGMP-specific PDE (PDE5) and the cGMP-inhibited cAMP PDE (PDE3) were obtained from human corpus cavernosum tissue, human platelets or rabbit platelets; the cGMP-stimulated PDE (PDE2) was obtained from human corpus cavernosum; the calcium/calmodulin (Ca/CAM)-dependent PDE (PDE1) from human cardiac ventricle; the cAMP-specific PDE (PDE4) from human skeletal muscle; and the photoreceptor PDE (PDE6) from bovine retina.
Assays were performed using a modification of the “batch” method of W. J. Thompson et al. (Biochem., 1979, 18, 5228).

| IC50 (cGMP PDE5) [nM] | melting point [°C] | Structure (SMILES) |
| --- | --- | --- |
| 7 | – | CCc1c2nc(-c3cc(S(=O)(=O)N4CCN(CC)CC4)cnc3O[C@H](C)[C@@H](C)OC)[nH]c(=O)c2nn1C [Example 98, 3-Ethyl-5-[5-(4-ethylpiperazin-1-ylsulphonyl)-2-(2-(R)-methoxy-1-(R)-methylpropoxy)pyridin-3-yl]-2-methyl-2,6-dihydro-7H-pyrazolo[4,3-d]pyrimidin-7-one] |
| 10.1 | – | CCCc1c2nc(-c3cc(S(=O)(=O)N4CCN(CC)CC4)cnc3OCCOCC)[nH]c(=O)c2nn1Cc1ccccn1 [Example 10, 5-[2-(2-Ethoxyethoxy)-5-(4-ethylpiperazin-1-ylsulphonyl)pyridin-3-yl]-3-n-propyl-2-(pyridin-2-yl)methyl-2,6-dihydro-7H-pyrazolo[4,3-d]pyrimidin-7-one] |
| 6.9 | – | CCCc1nn(Cc2ncccn2)c2c(=O)[nH]c(-c3cc(S(=O)(=O)N4CCN(CC)CC4)cnc3OCCOC)nc12 [Example 48, 5-[5-(4-Ethylpiperazin-1-ylsulphonyl)-2-(2-methoxyethoxy)pyridin-3-yl]-3-n-propyl-1-(pyrimidin-2-yl)methyl-1,6-dihydro-7H-pyrazolo[4,3-d]pyrimidin-7-one] |
| 7.3 | – | CCCc1nn(C)c2c(=O)[nH]c(-c3cc(S(=O)(=O)N4CCN(CC)CC4)cnc3OCc3ccccn3)nc12 [Example 127, 5-{5-(4-Ethylpiperazin-1-ylsulphonyl)-2-[(pyridin-2-yl)methoxy]pyridin-3-yl}-1-methyl-3-n-propyl-1,6-dihydro-7H-pyrazolo[4,3-d]pyrimidin-7-one] |
| 8.1 | – | CCc1nn(Cc2nccn2C)c2c(=O)[nH]c(-c3cc(S(=O)(=O)N4CCN(CC)CC4)cnc3OCCOC)nc12 [Example 46, 3-Ethyl-5-[5-(4-ethylpiperazin-1-ylsulphonyl)-2-(2-methoxyethoxy)pyridin-3-yl]-1-(1-methylimidazol-2-yl)methyl-1,6-dihydro-7H-pyrazolo[4,3-d]pyrimidin-7-one] |
| 7.2 | – | CCc1c2nc(-c3cc(S(=O)(=O)N4CCN(CC)CC4)cnc3N3CCCC3)[nH]c(=O)c2nn1Cc1ccccn1 [Example 153] |
| 5.7 | – | CCc1c2nc(-c3cc(S(=O)(=O)N4CCN(CC)CC4)cnc3OCc3ccccn3)[nH]c(=O)c2nn1C [Example 99, 3-Ethyl-5-[5-(4-ethylpiperazin-1-ylsulphonyl)-2-(pyridin-2-yl)methoxypyridin-3-yl]-2-methyl-2,6-dihydro-7H-pyrazolo[4,3-d]pyrimidin-7-one] |
| 8.9 | – | CCc1c2nc(-c3cc(S(=O)(=O)N4CCN(CC)CC4)cnc3O[C@@H]3CCOC3)[nH]c(=O)c2nn1Cc1ccccn1 [Example 18, 3-Ethyl-5-[5-(4-ethylpiperazin-1-ylsulphonyl)-2-(tetrahydrofuran-3(R)-yloxy)pyridin-3-yl]-2-(pyridin-2-yl)methyl-2,6-dihydro-7H-pyrazolo[4,3-d]pyrimidin-7-one] |
| 3.6 | – | CCCc1c2nc(-c3cc(S(=O)(=O)N4CCN(CC)CC4)cnc3OCC)[nH]c(=O)c2nn1Cc1ncccn1 [Example 43b, 5-[2-Ethoxy-5-(4-ethylpiperazin-1-ylsulphonyl)pyridin-3-yl]-3-n-propyl-2-(pyrimidin-2-yl)methyl-2,6-dihydro-7H-pyrazolo[4,3-d]pyrimidin-7-one] |
| – | 139 to 140 | CCc1c2nc(-c3cc(S(=O)(=O)N4CCN(CC)CC4)cnc3OCCOC)[nH]c(=O)c2nn1Cc1ccccn1 (hydrate or solvate) [Example 4, 3-Ethyl-5-[5-(4-ethylpiperazin-1-ylsulphonyl)-2-(2-methoxyethoxy)pyridin-3-yl]-2-(Pyridin-2-yl)methyl-2,6-dihydro-7H-pyrazolo[4,3-d]pyrimidin-7-one] |
| 10 | – | CCc1c2nc(-c3cc(S(=O)(=O)N4CCN(CC)CC4)cnc3OCCCOC)[nH]c(=O)c2nn1Cc1ccccn1 [Example 11, 3-Ethyl-5-[5-(4-ethylpiperazin-1-ylsulphonyl)-2-(3-methoxyprop-1-oxy)-pyridin-3-yl]-2-(pyridin-2-yl)methyl-2,6-dihydro-7H-pyrazolo[4,3-d]pyrimidin-7-one] |
